According to ChEMBL document CHEMBL1142966, “Enhanced antileukemic activity of the novel complex 2,5-dihydroxybenzoate molybdenum(VI) against 2,5-dihydroxybenzoate, polyoxometalate of Mo(VI), and tetraphenylphosphonium in the human HL-60 and K562 leukemic cell lines” (J Med Chem, 2007):

Assays:
Format in all cases: cell-based
HL-60 [1] = experiment: Cytotoxicity against human HL60 cells at 10 ug/mL by trypan blue assay after 24 hrs; conditions: hl-60, 24 h
HL-60 [2] = experiment: Cytotoxicity against human HL60 cells at 10 ug/mL by trypan blue assay after 48 hrs; conditions: hl-60, 48 h
HL-60 [3] = experiment: Cytotoxicity against human HL60 cells at 10 ug/mL by trypan blue assay after 72 hrs; conditions: hl-60, 72 h
HL-60 [4] = experiment: Cytotoxicity against human HL60 cells at 100 ug/mL by trypan blue assay after 24 hrs; conditions: hl-60, 24 h
HL-60 [5] = experiment: Cytotoxicity against human HL60 cells at 100 ug/mL by trypan blue assay after 48 hrs; conditions: hl-60, 48 h
HL-60 [6] = experiment: Cytotoxicity against human HL60 cells at 100 ug/mL by trypan blue assay after 72 hrs; conditions: hl-60, 72 h
HL-60 [7] = experiment: Cytotoxicity against human HL60 cells at 1000 ug/mL by trypan blue assay after 24 hrs; conditions: hl-60, 24 h
HL-60 [8] = experiment: Cytotoxicity against human HL60 cells at 1000 ug/mL by trypan blue assay after 48 hrs; conditions: hl-60, 48 h
HL-60 [9] = experiment: Cytotoxicity against human HL60 cells at 1000 ug/mL by trypan blue assay after 72 hrs; conditions: hl-60, 72 h
K562 [10] = experiment: Cytotoxicity against human K562 cells at 10 ug/mL by trypan blue assay after 24 hrs; conditions: k562, 24 h
HL-60 [11] = experiment: Cytotoxicity against human HL60 cells at 10000 ug/mL by trypan blue assay after 24 hrs; conditions: hl-60, 24 h
HL-60 [12] = experiment: Cytotoxicity against human HL60 cells at 10000 ug/mL by trypan blue assay after 48 hrs; conditions: hl-60, 48 h
HL-60 [13] = experiment: Cytotoxicity against human HL60 cells at 10000 ug/mL by trypan blue assay after 72 hrs; conditions: hl-60, 72 h
K562 [14] = experiment: Cytotoxicity against human K562 cells at 10 ug/mL by trypan blue assay after 48 hrs; conditions: k562, 48 h
K562 [15] = experiment: Cytotoxicity against human K562 cells at 10 ug/mL by trypan blue assay after 72 hrs; conditions: k562, 72 h
K562 [16] = experiment: Cytotoxicity against human K562 cells at 100 ug/mL by trypan blue assay after 24 hrs; conditions: k562, 24 h
K562 [17] = experiment: Cytotoxicity against human K562 cells at 100 ug/mL by trypan blue assay after 48 hrs; conditions: k562, 48 h
K562 [18] = experiment: Cytotoxicity against human K562 cells at 100 ug/mL by trypan blue assay after 72 hrs; conditions: k562, 72 h
K562 [19] = experiment: Cytotoxicity against human K562 cells at 1000 ug/mL by trypan blue assay after 24 hrs; conditions: k562, 24 h
K562 [20] = experiment: Cytotoxicity against human K562 cells at 1000 ug/mL by trypan blue assay after 48 hrs; conditions: k562, 48 h
K562 [21] = experiment: Cytotoxicity against human K562 cells at 1000 ug/mL by trypan blue assay after 72 hrs; conditions: k562, 72 h
K562 [22] = experiment: Cytotoxicity against human K562 cells at 10000 ug/mL by trypan blue assay after 24 hrs; conditions: k562, 24 h
K562 [23] = experiment: Cytotoxicity against human K562 cells at 10000 ug/mL by trypan blue assay after 48 hrs; conditions: k562, 48 h
K562 [24] = experiment: Cytotoxicity against human K562 cells at 10000 ug/mL by trypan blue assay after 72 hrs; conditions: k562, 72 h

Q: Which Activity (HL-60 [1]) does the source give for [Cl-].c1ccc([P+](c2ccccc2)(c2ccccc2)c2ccccc2)cc1 [TETRAPHENYLPHOSPHONIUM CHLORIDE] here?
A: 1%

Q: What about the Activity (HL-60 [2]) of the same compound?
A: 100%

Q: What about the Activity (HL-60 [3]) of the same compound?
A: 100%

Q: What about the Activity (HL-60 [4]) of the same compound?
A: 4.5%

Q: What about the Activity (HL-60 [5]) of the same compound?
A: 100%

Q: What about the Activity (HL-60 [6]) of the same compound?
A: 100%

Q: And the Activity (HL-60 [7])?
A: 100%

Q: What about the Activity (HL-60 [8]) of the same compound?
A: 100%

Q: What about the Activity (HL-60 [9]) of the same compound?
A: 100%

Q: And the Activity (K562 [10])?
A: 56.8%

Q: And the Activity (HL-60 [11])?
A: 100%

Q: What about the Activity (HL-60 [12]) of the same compound?
A: 100%

Q: What about the Activity (HL-60 [13]) of the same compound?
A: 100%

Q: What about the Activity (K562 [14]) of the same compound?
A: 100%

Q: And the Activity (K562 [15])?
A: 100%

Q: What about the Activity (K562 [16]) of the same compound?
A: 41.8%

Q: What about the Activity (K562 [17]) of the same compound?
A: 100%

Q: And the Activity (K562 [18])?
A: 100%

Q: What about the Activity (K562 [19]) of the same compound?
A: 100%

Q: What about the Activity (K562 [20]) of the same compound?
A: 100%

Q: What about the Activity (K562 [21]) of the same compound?
A: 100%

Q: What about the Activity (K562 [22]) of the same compound?
A: 100%

Q: And the Activity (K562 [23])?
A: 100%

Q: And the Activity (K562 [24])?
A: 100%
